Where two headings read alike, the source gives them in different places.
Columns and labels:
[1] = target: Casein kinase I isoform delta ; CSNK1D ; P48730 (Homo sapiens, UniProt P48730); assay: biochemical; parameters: species or system human cell line lysate
[2] = target: Mitogen-activated protein kinase kinase kinase kinase 5 ; MAP4K5 ; Q9Y4K4 (Homo sapiens, UniProt Q9Y4K4); assay: biochemical; parameters: species or system human cell line lysate
[3] = target: Ribosomal protein S6 kinase beta-1 ; RPS6KB1 ; P23443 (Homo sapiens, UniProt P23443); assay: biochemical; parameters: species or system human cell line lysate
Chain of Ribosomal protein S6 kinase beta-1 ; RPS6KB1 ; P23443 (P23443 whole entry): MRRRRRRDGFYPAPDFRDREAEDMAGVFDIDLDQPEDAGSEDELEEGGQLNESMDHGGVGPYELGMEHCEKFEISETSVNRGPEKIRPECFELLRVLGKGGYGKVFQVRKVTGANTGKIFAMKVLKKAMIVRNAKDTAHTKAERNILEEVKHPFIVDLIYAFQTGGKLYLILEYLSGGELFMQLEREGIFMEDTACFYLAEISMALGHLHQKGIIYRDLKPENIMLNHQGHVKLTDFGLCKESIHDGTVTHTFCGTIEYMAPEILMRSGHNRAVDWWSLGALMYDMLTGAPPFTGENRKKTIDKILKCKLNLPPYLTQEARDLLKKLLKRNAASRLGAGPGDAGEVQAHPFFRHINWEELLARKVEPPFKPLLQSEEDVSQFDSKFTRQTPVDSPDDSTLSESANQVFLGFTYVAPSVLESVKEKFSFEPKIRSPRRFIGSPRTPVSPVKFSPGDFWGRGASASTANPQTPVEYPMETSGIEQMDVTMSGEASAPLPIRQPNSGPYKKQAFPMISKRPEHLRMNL

[4] = target: Tyrosine-protein kinase Mer ; MERTK ; Q12866 (Homo sapiens, UniProt Q12866); assay: biochemical; parameters: species or system human cell line lysate
Chain of Tyrosine-protein kinase Mer ; MERTK ; Q12866 (Q12866 whole entry): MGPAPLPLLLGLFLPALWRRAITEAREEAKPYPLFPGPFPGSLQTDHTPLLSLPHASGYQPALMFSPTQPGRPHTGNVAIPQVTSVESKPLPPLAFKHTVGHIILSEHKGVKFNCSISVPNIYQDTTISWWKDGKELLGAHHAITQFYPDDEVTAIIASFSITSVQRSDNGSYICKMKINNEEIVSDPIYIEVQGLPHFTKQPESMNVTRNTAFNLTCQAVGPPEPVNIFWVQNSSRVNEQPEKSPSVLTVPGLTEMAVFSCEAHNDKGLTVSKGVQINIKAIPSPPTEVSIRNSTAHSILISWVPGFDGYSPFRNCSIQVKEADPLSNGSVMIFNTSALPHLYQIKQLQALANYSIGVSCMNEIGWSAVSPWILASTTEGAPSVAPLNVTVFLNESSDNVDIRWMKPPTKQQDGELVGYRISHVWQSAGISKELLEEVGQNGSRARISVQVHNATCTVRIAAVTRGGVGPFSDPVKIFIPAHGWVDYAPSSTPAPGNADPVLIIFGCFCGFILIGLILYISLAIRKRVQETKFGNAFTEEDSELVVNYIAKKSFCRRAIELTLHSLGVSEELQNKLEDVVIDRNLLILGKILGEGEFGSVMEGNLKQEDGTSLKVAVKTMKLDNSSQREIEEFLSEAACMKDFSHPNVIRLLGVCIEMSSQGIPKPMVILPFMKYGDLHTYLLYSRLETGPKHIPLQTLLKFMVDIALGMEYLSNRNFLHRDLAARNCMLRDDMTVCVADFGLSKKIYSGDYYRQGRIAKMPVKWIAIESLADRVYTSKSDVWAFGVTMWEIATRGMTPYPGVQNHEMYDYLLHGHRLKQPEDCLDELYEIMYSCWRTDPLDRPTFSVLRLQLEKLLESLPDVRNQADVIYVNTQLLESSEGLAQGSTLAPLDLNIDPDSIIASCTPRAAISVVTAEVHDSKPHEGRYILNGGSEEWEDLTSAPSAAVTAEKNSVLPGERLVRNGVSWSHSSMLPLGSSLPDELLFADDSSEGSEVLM

[5] = target: cAMP-dependent protein kinase catalytic subunit beta ; PRKACB ; P22694 (Homo sapiens, UniProt P22694); assay: biochemical; parameters: species or system human cell line lysate
[6] = target: Activated CDC42 kinase 1 ; TNK2 ; Q07912 (Homo sapiens, UniProt Q07912); parameters: species or system mixed lysate of K562, MV4-11, THP-1, NCI-H1155; conditions: DDA-MS residual binding; binder
Chain of Activated CDC42 kinase 1 ; TNK2 ; Q07912 (Q07912 whole entry): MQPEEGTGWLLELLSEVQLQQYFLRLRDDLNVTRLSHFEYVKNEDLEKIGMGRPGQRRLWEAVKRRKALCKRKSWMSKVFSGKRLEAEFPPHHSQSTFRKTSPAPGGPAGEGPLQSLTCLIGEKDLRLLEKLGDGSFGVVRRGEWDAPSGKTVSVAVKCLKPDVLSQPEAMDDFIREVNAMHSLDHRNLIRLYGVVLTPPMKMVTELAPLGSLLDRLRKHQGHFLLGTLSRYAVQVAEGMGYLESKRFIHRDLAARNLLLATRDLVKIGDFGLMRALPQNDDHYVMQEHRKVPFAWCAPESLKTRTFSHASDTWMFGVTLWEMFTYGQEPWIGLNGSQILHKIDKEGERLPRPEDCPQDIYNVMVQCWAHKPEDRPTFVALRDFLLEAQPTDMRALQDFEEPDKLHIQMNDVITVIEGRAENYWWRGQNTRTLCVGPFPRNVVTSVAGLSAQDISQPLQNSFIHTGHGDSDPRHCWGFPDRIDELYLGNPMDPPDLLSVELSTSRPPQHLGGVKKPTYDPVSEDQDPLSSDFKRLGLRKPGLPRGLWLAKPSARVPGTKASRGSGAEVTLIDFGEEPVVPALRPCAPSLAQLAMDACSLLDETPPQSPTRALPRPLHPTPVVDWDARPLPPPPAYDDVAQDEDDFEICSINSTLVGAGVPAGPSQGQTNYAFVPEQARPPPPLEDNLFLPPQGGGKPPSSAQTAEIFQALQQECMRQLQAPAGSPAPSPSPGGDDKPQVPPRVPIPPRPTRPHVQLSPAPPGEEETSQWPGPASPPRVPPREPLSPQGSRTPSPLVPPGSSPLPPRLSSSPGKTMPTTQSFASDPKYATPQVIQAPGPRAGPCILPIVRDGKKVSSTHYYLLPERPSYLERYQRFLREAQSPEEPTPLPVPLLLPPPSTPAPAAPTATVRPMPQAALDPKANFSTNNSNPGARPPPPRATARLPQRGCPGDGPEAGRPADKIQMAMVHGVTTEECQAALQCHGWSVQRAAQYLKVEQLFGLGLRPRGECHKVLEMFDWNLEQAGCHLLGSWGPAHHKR

[7] = target: T1, Ephrin type-B receptor 2 ; EPHB2 ; P29323 (Homo sapiens, UniProt P29323); parameters: species or system mixed lysate of K562, MV4-11, THP-1, NCI-H1155; conditions: DDA-MS residual binding; binder
T1 sequence (P29323 1-1055): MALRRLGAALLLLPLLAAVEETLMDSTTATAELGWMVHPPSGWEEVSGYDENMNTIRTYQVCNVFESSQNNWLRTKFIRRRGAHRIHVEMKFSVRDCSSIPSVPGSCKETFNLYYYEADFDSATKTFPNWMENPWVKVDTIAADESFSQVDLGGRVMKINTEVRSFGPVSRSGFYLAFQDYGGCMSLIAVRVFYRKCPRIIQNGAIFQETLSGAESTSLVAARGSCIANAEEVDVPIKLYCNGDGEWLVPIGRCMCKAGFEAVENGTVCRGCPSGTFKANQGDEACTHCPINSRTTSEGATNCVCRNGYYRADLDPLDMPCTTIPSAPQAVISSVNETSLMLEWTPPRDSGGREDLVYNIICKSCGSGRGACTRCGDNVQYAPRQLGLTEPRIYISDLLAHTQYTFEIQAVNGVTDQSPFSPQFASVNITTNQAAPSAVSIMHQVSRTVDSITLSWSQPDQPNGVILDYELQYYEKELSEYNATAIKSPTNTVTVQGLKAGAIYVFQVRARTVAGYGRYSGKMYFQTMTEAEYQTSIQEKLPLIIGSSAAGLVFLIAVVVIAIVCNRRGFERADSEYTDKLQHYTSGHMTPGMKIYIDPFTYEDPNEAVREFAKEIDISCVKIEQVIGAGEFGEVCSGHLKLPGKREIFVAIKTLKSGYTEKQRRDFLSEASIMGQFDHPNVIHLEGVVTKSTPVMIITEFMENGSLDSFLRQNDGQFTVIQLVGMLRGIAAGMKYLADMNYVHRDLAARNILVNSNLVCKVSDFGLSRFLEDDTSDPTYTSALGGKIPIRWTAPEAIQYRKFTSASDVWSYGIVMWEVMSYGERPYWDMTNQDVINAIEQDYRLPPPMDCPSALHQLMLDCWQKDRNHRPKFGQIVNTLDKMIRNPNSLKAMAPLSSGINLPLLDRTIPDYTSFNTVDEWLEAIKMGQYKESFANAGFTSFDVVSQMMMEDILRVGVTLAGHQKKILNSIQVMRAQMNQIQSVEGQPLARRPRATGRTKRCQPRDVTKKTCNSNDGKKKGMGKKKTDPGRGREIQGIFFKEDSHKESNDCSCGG

[8] = target: LIM domain kinase 1 ; LIMK1 ; P53667 (Homo sapiens, UniProt P53667); parameters: species or system mixed lysate of K562, MV4-11, THP-1, NCI-H1155; conditions: DDA-MS residual binding; binder
[9] = target: LIM domain kinase 2 ; LIMK2 ; P53671 (Homo sapiens, UniProt P53671); parameters: species or system mixed lysate of K562, MV4-11, THP-1, NCI-H1155; conditions: DDA-MS residual binding; binder
[10] = target: Phosphatidylinositol 4-kinase alpha ; PI4KA ; P42356 (Homo sapiens, UniProt P42356); parameters: species or system mixed lysate of K562, MV4-11, THP-1, NCI-H1155; conditions: DDA-MS residual binding; binder
[11] = target: Serine/threonine-protein kinase SIK2 ; SIK2 ; Q9H0K1 (Homo sapiens, UniProt Q9H0K1); parameters: species or system mixed lysate of K562, MV4-11, THP-1, NCI-H1155; conditions: DDA-MS residual binding; binder
[12] = target: Tyrosine-protein kinase FRK ; FRK ; P42685 (Homo sapiens, UniProt P42685); parameters: species or system mixed lysate of K562, MV4-11, THP-1, NCI-H1155; conditions: DDA-MS residual binding; binder
Chain of Tyrosine-protein kinase FRK ; FRK ; P42685 (P42685 whole entry): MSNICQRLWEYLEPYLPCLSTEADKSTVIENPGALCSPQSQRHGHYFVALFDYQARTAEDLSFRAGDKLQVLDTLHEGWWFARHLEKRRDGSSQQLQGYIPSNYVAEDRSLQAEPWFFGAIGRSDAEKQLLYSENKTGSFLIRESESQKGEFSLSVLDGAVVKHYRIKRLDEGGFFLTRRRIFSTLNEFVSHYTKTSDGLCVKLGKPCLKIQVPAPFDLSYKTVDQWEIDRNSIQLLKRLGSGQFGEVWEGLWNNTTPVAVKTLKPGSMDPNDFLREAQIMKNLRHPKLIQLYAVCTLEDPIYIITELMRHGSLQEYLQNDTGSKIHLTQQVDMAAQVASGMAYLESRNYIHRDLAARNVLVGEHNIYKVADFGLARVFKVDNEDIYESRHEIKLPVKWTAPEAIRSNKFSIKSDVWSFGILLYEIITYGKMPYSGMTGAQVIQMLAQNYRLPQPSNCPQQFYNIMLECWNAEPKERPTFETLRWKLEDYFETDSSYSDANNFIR

[13] = target: Tyrosine-protein kinase Fgr ; FGR ; P09769 (Homo sapiens, UniProt P09769); parameters: species or system mixed lysate of K562, MV4-11, THP-1, NCI-H1155; conditions: binder
[14] = target: Tyrosine-protein kinase Yes ; YES1 ; P07947 (Homo sapiens, UniProt P07947); parameters: species or system mixed lysate of K562, MV4-11, THP-1, NCI-H1155; conditions: binder
Chain of Tyrosine-protein kinase Yes ; YES1 ; P07947 (P07947 whole entry): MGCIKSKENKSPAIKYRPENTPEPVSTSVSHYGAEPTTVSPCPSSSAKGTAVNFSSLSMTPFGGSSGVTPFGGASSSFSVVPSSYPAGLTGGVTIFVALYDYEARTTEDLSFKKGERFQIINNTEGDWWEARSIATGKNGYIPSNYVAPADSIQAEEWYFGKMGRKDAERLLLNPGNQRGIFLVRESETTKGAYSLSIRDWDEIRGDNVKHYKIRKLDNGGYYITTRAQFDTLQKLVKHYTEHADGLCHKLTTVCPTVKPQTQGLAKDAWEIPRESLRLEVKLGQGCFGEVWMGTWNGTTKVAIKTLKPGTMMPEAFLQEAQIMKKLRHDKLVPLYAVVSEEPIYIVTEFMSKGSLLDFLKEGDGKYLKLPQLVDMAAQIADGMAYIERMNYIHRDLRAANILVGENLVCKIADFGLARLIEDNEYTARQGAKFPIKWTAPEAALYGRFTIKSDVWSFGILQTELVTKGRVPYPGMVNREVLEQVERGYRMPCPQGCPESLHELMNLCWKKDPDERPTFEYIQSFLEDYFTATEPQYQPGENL

[15] = read-out: BAY-1143572 (10 µM) / %Intensity relative to DMSO
[16] = read-out: BAY-1251152 (10 µM) / %Intensity relative to DMSO

Chain of Mitogen-activated protein kinase kinase kinase kinase 5 ; MAP4K5 ; Q9Y4K4 (Q9Y4K4 whole entry): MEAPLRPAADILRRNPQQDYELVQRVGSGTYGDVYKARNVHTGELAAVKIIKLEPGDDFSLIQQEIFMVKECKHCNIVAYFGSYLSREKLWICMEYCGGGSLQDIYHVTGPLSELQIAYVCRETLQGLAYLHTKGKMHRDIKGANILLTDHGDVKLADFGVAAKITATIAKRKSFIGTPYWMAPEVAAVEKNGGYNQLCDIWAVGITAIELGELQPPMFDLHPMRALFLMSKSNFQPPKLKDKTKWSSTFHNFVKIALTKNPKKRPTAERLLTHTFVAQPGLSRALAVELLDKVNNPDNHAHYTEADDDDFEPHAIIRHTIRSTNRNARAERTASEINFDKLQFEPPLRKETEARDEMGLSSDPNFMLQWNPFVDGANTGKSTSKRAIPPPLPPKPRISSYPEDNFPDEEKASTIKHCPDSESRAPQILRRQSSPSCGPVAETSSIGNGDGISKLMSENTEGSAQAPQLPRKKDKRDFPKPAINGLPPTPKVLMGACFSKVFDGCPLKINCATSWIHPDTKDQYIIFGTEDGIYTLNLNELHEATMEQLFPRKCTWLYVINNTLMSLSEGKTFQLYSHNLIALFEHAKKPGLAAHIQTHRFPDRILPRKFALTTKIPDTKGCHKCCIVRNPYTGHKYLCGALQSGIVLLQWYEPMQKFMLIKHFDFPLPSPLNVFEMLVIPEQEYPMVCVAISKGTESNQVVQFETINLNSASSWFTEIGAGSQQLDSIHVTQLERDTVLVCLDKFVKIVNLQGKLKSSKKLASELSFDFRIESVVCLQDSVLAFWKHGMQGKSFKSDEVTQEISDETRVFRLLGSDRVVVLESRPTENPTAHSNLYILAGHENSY
Chain of Casein kinase I isoform delta ; CSNK1D ; P48730 (P48730 whole entry, canonical isoform): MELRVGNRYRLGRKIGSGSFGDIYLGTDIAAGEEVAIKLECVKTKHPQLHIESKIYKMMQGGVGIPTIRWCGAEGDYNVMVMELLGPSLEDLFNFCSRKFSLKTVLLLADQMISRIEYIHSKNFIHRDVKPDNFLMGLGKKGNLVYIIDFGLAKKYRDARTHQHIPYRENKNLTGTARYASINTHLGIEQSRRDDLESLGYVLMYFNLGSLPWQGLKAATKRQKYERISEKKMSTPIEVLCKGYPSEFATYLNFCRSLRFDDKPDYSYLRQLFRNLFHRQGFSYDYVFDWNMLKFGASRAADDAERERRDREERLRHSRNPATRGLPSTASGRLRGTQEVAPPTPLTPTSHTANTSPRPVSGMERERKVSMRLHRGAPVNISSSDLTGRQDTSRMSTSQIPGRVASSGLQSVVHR

COc1cc(F)ccc1-c1ncnc(Nc2cccc(C[S@](C)(=N)=O)c2)n1 [BAY-1143572] gave a remaining activity at 10 µM [1, 15] of 121%, a remaining activity at 10 µM [2, 15] of 97.6% and a remaining activity at 10 µM [3, 15] of 137%. It also gave a remaining activity at 10 µM [4, 15] of 86.5% and a remaining activity at 10 µM [5, 15] of 111%.

In the case of COc1cc(F)ccc1-c1cc(Nc2cc(CS(C)(=N)=O)ccn2)ncc1F (stereo not shown) [BAY-1251152], the remaining activity at 10 µM [1, 16] is reported as 117%, the remaining activity at 10 µM [2, 16] is reported as 55.3% and the remaining activity at 10 µM [3, 16] is reported as 129%. It also gave a remaining activity at 10 µM [4, 16] of 52.5% and a remaining activity at 10 µM [5, 16] of 105%.

Cc1nc(Nc2ncc(C(=O)Nc3c(C)cccc3Cl)s2)cc(N2CCN(CCO)CC2)n1 [dasatinib] was tested, and the “DDA-MS / % Intensity (30 µM/DMSO)” value [6] was 3.313%, the “DDA-MS / % Intensity (30 µM/DMSO)” value [7] was 7.218% and the “DDA-MS / % Intensity (30 µM/DMSO)” value [8] was 23.79%. The “DDA-MS / % Intensity (30 µM/DMSO)” value [9] was 7.37%, the “DDA-MS / % Intensity (30 µM/DMSO)” value [10] was 10.66% and the “DDA-MS / % Intensity (30 µM/DMSO)” value [11] was 1.826%. For the same compound, the “DDA-MS / % Intensity (30 µM/DMSO)” value [12] was 5.626%, the “DDA-MS / % Intensity (30 µM/DMSO)” value [13] was 3.884% and the “DDA-MS / % Intensity (30 µM/DMSO)” value [14] was 0.4709%.

From article doi:10.1101/2024.08.13.607785v1 (biorxiv, 2024)
